In patent publication US20120040897A1, “NOVEL DERIVATIVES OF ACYL CYANOPYRROLIDINES” (Sun Pharma Advanced Research Company Ltd., priority 2008, published 2012):

Key:
Assay type in all cases: biochemical
DPP IV = target: T1, DPP IV (Rattus norvegicus, UniProt P14740); assay: Invitro DPP4 inhibition assay in rat plasma; conditions: substrate Gly-Pro-AMC
T1 construct: from tissue; host or cells: rat plasma
Procedure: The assay system comprises of […] of rat plasma, 20 mM MgCl2 test compound, 50 uM substrate Gly-Pro-AMC & buffer (25 mM HEPES, 140 mM NaCl, 1% BSA, pH 7.8) in a total reaction volume of 100 μl. The test compound was preincubated with plasma and MgCl2 for 10 minutes at 37° C. followed by further incubation of 20 minutes after addition of substrate. The experiment was repeated using vehicle as control. The AMC (7-Amino-4-Methylcoumarin) liberated in the samples was quantified in a Multilable counter at excitation wavelength 355 nm & emission wavelength 462 nm from a standard AMC plot. The DPP4 activity in each sample was represented as pmoles of AMC released/mg/min. Plasma protein was estimated by Lowry's method.

DPP7 = DPP7 (Homo sapiens, UniProt Q9UHL4); assay: Percent inhibition of DPP7 activity; conditions: at 10000 nM concentration
From the text: (§1) The following Table 39 gives percent inhibition DPP7, DPP8 & DPP9 activity, as determined for exemplary compounds of the invention

DPP8 = DPP8 (Homo sapiens, UniProt Q6V1X1); assay: Percent inhibition of DPP8 activity; conditions: at 10000 nM concentration
From the text: as §1

DPP9 = DPP9 (Homo sapiens, UniProt Q86TI2); assay: Percent inhibition of DPP9 activity; conditions: at 10000 nM concentration
From the text: as §1

T1 sequence (P14740 37-767 limits assumed): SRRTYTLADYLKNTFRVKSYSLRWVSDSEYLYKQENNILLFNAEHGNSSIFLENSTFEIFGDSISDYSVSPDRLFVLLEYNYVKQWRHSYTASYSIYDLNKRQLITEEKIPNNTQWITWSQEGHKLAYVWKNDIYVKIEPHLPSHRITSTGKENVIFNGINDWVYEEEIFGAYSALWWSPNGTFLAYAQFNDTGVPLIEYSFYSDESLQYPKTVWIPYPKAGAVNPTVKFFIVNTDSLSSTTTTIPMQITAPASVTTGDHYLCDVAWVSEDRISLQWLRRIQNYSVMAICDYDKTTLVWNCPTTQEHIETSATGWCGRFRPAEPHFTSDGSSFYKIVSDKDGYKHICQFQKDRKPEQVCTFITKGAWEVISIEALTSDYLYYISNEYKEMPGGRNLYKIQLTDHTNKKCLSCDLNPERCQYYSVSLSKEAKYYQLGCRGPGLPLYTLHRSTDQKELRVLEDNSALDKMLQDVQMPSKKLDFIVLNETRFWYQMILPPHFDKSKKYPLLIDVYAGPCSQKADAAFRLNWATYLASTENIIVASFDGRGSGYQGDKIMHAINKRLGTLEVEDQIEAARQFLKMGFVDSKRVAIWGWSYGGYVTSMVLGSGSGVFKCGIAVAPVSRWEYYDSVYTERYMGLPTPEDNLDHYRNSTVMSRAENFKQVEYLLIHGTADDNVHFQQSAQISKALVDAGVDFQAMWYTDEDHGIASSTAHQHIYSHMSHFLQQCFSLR
Chain of DPP9 (Q86TI2 whole entry, species assumed): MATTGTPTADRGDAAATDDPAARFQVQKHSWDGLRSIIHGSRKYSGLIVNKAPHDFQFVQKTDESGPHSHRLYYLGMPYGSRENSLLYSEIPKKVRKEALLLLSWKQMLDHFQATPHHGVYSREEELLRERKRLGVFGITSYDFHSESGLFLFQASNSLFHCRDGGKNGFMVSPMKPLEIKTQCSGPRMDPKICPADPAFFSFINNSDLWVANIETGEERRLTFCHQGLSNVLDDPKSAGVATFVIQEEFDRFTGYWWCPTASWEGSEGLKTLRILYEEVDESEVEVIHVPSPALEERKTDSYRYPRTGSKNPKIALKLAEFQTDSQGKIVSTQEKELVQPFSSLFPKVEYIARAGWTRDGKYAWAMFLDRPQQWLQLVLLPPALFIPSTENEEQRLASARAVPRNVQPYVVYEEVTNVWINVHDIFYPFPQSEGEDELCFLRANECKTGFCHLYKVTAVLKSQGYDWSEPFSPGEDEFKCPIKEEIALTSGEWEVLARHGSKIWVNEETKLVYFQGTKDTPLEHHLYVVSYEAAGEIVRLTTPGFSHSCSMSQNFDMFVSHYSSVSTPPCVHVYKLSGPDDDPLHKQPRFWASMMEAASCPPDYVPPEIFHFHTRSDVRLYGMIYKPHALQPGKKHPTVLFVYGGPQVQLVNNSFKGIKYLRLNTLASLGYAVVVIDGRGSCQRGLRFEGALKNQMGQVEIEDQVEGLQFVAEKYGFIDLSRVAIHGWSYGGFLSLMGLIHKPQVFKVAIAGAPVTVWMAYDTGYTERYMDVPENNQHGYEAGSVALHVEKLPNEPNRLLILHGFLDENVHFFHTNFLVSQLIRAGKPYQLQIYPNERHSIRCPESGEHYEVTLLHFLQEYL
Chain of DPP8 (Q6V1X1 whole entry, species assumed): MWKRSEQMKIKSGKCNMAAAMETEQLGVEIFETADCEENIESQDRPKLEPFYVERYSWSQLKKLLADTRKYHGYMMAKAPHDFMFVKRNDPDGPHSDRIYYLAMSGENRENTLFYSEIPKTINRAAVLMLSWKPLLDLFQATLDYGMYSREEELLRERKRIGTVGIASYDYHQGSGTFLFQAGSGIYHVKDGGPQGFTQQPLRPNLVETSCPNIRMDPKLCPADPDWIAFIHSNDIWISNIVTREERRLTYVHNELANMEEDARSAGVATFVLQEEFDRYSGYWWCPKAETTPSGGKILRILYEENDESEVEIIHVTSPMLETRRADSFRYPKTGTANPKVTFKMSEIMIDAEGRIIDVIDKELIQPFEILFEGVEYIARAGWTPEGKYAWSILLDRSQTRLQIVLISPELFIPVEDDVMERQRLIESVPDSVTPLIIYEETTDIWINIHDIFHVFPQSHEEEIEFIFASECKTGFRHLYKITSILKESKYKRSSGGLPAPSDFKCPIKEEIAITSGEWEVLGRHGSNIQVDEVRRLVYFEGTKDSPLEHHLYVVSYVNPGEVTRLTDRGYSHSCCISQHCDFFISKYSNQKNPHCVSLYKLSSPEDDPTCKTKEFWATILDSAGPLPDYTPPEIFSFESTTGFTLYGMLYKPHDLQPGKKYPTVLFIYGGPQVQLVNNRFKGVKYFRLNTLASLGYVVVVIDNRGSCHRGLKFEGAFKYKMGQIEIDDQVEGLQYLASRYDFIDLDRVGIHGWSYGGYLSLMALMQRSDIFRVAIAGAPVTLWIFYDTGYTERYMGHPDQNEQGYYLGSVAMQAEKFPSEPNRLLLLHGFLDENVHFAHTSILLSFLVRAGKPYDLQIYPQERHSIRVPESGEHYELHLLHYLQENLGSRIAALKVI

IC50 (DPP IV)	inhibition at 10 µM (DPP7)	inhibition at 10 µM (DPP8)	inhibition at 10 µM (DPP9)	SMILES
0.0182 µM	–	–	–	CC1(NCC(=O)N2CCC[C@H]2C#N)CCN(S(=O)(=O)OC[C@H]2O[C@@H]3OC(C)(C)O[C@@H]3[C@H]3OC(C)(C)O[C@H]32)CC1 [Example 112, 1,2:3,4-di-O-isopropylidene-6-[piperidin-{(4-aminoacetylpyrrolidine-2-(S)-carbonitrile)-4-methyl-1-sulfonyl}-1-yl]-D-galactopyranose]
0.0223 µM	–	–	–	CC1(NCC(=O)N2CCC[C@H]2C#N)CCN(C[C@H]2O[C@@H]3OC(C)(C)O[C@@H]3[C@H]2O)CC1 [Example 135, 1,2-O-Isopropylidene-5-[4-methylpiperidin-{4-aminoacetylpyrrolidine-2-(S)-carbonitrile}-1-yl]-5-deoxy-α-D-xylofuranose]
0.0143 µM	–	–	–	CCOCCO[C@@H]1O[C@H](CN2CCC(C)(NCC(=O)N3CCC[C@H]3C#N)CC2)[C@H]2OC(C)(C)O[C@@H]12 [Example 123, 2,3-O-Isopropylidene-β-1-O-ethoxyethyl-5-[piperidin-{4-aminoacetylpyrrolidine-2-(S)-carbonitrile}(4-methyl)-1-yl]-5-deoxy-D-ribofuranose]
0.00598 µM	0%	18%	29%	CC1(C)O[C@@H]2[C@@H](CO[C@@]3(CN4CCC(NCC(=O)N5CCC[C@H]5C#N)CC4)OC(C)(C)O[C@@H]23)O1 [Example 1, 2,3:4,5-di-O-isopropylidene-1-[piperidin-(4-aminoacetylpyrrolidine-2-(S)-carbonitrile}-1-yl]-1-deoxy-β-D-fructopyranose]
